Among the data in PubChem BioAssay (NCI) are GI50 and TGI values, retold here.

“And” between values parts separate entries of the source, which are not always exact repeats. Equal values may be shown once.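 Grown in 96-well plates, cells were treated for 48 hours with each compound at five concentrations. Insufficient inhibition: endpoint recorded as highest concentration tested. GI50 is the concentration that inhibits growth by half. TGI: total growth inhibition.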

What all share (assay): growth of human tumour cells (NCI), 48 h
Test [1] concerns COLO 205 colon.
For test [2], the system named is HCC-2998 colon.
In test [3] the test system is HCT-116 colon.
Test [4] has as its system MCF7 breast.
The subject of test [5] is NCI-H460 lung.
Test [6] deals with NCI-H522 lung.
In test [7] the test system is RPMI-8226 leukemia.
Test [8] deals with SK-MEL-2 melanoma.
Test [9] deals with IGROV1 ovarian.
For test [10], the system named is RXF 393 renal.

Regarding `C/C(=C\c1csc(C)n1)[C@@H]1C[C@@H]2O[C@]2(C)CCC[C@H](C)[C@H](O)[C@@H](C)C(=O)C(C)(C)[C@@H](O)CC(=O)N1`, the GI50 in [1] is 0.000182 µM; in test [2] it was 0.000121 µM; in test [3] it was 0.0917 nM; in [4], 0.0795 nM; in test [5], 0.000109 µM; in test [6], 0.0757 nM. Further, the GI50 in [7] and in test [8] was less than 0.01 nM each time. The TGI in [1] worked out at 0.000438 µM; in test [2], 0.000243 µM; in test [3], 0.0003 µM; in test [4], 0.00037 µM; in test [5], 0.00036 µM; in test [6] it was 0.00019 µM. The TGI in test [7] and in test [8] was less than 1e-05 µM throughout.
For `CN(C)CCCC1(c2ccc(F)cc2)OCc2cc(-c3csc4ccccc34)ccc21` (configuration not stated), the GI50 was 1.73 µM in test [1]; 1.65 µM in [2]; 1.35 µM in test [9]; 1670 nM in test [4]; 1.6 µM in test [5]; 1650 nM in [6]. The GI50 in test [10] is 1.54 µM; in [8], 1830 nM. In addition, the TGI turned out to be 3.79 µM in test [1]; 3.14 µM in test [2]; 2.96 µM in [9]; 3.27 µM in test [4]; 3.18 µM in test [5]; 3.48 µM in [6]. Also, the figures for the TGI in test [10] and in test [8] were 2.95 µM and 3.58 µM, respectively.
For `COc1cc(/C=C/C(=O)c2nc3cc(F)ccc3nc2C)cc(OC)c1OC`, the GI50 was 7.56 µM in test [1]; more than 100 µM in test [2]; 3590 nM in [3]; 11.4 µM in test [9]; 2300 nM in test [4]; 4.05 µM in test [5]. For the same compound, the GI50 in [6] was 6980 nM; in test [7], 327 nM; in test [8] it was 34500 nM. The TGI in [1] is more than 100 µM; in [2] it was more than 100 µM; in [3], more than 51.6 µM; in [9], more than 100 µM; in test [4] it was more than 100 µM; in test [5] it was more than 100 µM. Moreover, the values for the TGI in test [6], in test [7] and in test [8] were more than 100 µM, 3.07 µM and more than 100 µM, respectively.
In the case of `COc1cc2c(cc1OCCN1CCN(CCN3C(=O)c4cccc5cccc(c45)C3=O)CC1)N=C[C@@H]1CCCN1C2=O`, the GI50 in test [1] is 24.8 µM; in test [9] it was 19.2 µM; in [4], 15800 nM; in [5], 18.1 µM; in test [6], 18800 nM; in [7] it was 17100 nM. For the same compound, the results for the GI50 in test [10] and in test [8] were 14.2 µM and 24600 nM, respectively. For the same compound, the TGI in test [1] amounted to 44.8 µM; in [9], 36.9 µM; in test [4], 32.4 µM; in test [5], 42.8 µM; in test [6] it was 34.8 µM; in [7] it was 34.8 µM. Also, the TGI worked out at 32.2 µM in test [10] and 51.1 µM in test [8].
Consider `CCN1CCN(CC(=O)Nc2nc3ccc(NCc4ccc(Br)cc4)cc3s2)CC1`, for which the GI50 was 1540 nM in [3]; 2050 nM in test [4]; 1540 nM in test [7]; 1.63 µM in test [10]; 1950 nM in test [8]. Also, the TGI in test [3] is 3.3 µM; in test [4], 4.9 µM; in test [7] it was 4.07 µM; in test [10], 3.25 µM; in test [8], 3.63 µM.
In the case of `O=S(=O)(O)C(c1ccccc1)C(O)c1ccccc1` (configuration not stated), the TGI in [1], in test [3], in test [9], in test [4], in [5] and in test [6] was more than 100 µM each time. Also, the TGI in [7], in test [10] and in [8] was more than 100 µM each time.
For `CC1(C)CC(=O)C(C(=O)Nc2cccs2)=C(O)C1`, the TGI was 33.7 µM in [1]; more than 100 µM in [2]; more than 100 µM in [3]; more than 100 µM in test [9]; more than 100 µM in test [5]; more than 100 µM in test [6]. Also, the TGI in test [7], in test [10] and in [8] was more than 100 µM each time.
`NS(=O)(=O)c1cc2c(cc1Cl)NCNS2(=O)=O`: the TGI in test [1], in [2], in test [3], in test [9], in test [4] and in test [5] was more than 100 µM each time. Also, the TGI in test [6], in test [7] and in test [8] was more than 100 µM throughout.
Consider `O=C(O)c1cn(C2CC2)c2cc(N3CCN(C(=O)N(c4ccccc4)c4nc(-c5ccccc5)cs4)CC3)c(F)cc2c1=O`, for which the GI50 in [2] was 0.595 µM; in test [3] it was 351 nM; in test [9], 0.393 µM; in [4], 358 nM; in [5] it was 0.296 µM; in test [10] it was 0.272 µM. The GI50 in [8] is 554 nM. Besides, the TGI in test [2] was more than 100 µM; in [3], more than 100 µM; in test [9] it was more than 100 µM; in test [4], more than 100 µM; in [5], more than 100 µM; in [10], 1.49 µM. The TGI in [8] came to 2.92 µM.
As to `O=[N+]([O-])c1ccc(/C=C(/c2ccc([N+](=O)[O-])o2)S(=O)(=O)c2ccccc2)cc1`, the TGI in [1], in [3], in [9], in [4], in test [5] and in test [6] was more than 100 µM in each case. In addition, the TGI was 31.4 µM in test [7], more than 100 µM in test [10] and more than 100 µM in test [8].
With `O=C1c2ccccc2N1C(=O)c1ccccc1[N+](=O)[O-]`, the TGI in [1], in test [2], in test [3], in test [9], in [4] and in [5] was more than 100 µM throughout. The TGI in [6], in test [7] and in test [8] was more than 100 µM in each case.
For the compound `O=C(/C=C(\[O-])c1ccccc1)CCCCCCC(=O)/C=C(\[O-])c1ccccc1.O=C(/C=C(\[O-])c1ccccc1)CCCCCCC(=O)/C=C(\[O-])c1ccccc1.O=C(/C=C(\[O-])c1ccccc1)CCCCCCC(=O)/C=C(\[O-])c1ccccc1.[Y+3].[Y+3]`, the GI50 in [1] was more than 50 µM; in [2], more than 50 µM; in test [3], 14900 nM; in test [9], more than 50 µM; in test [5] it was more than 50 µM; in test [6], 9860 nM. Besides, the GI50 in test [7] was 44800 nM; in test [10], 11 µM; in test [8] it was more than 50000 nM. The TGI in test [1] was more than 50 µM; in test [2], more than 50 µM; in test [3], more than 50 µM; in test [9], more than 50 µM; in [5], more than 50 µM; in [6], 37.9 µM. Moreover, the TGI was more than 50 µM in [7], 37.4 µM in [10] and more than 50 µM in [8].
With `O=C(CCN1CCOCC1)Nc1ccc(Cn2nnc3c2C(=O)c2nnn(Cc4ccc(NC(=O)CCN5CCOCC5)cc4)c2C3=O)cc1`, the GI50 in test [1] is 0.645 µM; in test [2] it was 2.62 µM; in test [3] it was 384 nM; in test [4] it was 271 nM; in [5], 0.569 µM; in [6], 1630 nM. The GI50 in test [7] is 1430 nM; in test [10], more than 100 µM. Further, the TGI was 2.13 µM in test [1]; 6.68 µM in [2]; more than 100 µM in test [3]; 0.978 µM in [4]; more than 100 µM in test [5]; 4.34 µM in test [6]. The TGI is more than 21.1 µM in test [7] and more than 100 µM in [10].
With `Cc1cccc(Oc2ccc(Nc3ncnc4ccc(NC(=O)CN(C)C)cc34)cc2Cl)c1`, the GI50 in test [1] is 1.71 µM; in test [2] it was 1.6 µM; in test [3] it was 1610 nM; in [9], 0.376 µM; in test [4] it was 1690 nM; in [5], 1.81 µM. In addition, the GI50 was 244 nM in test [6], 1.61 µM in [10] and 1840 nM in [8]. Also, the TGI turned out to be 3.48 µM in test [1]; 3.19 µM in test [2]; 3.09 µM in test [3]; 2.41 µM in [9]; 3.87 µM in [4]; 3.35 µM in [5]. Moreover, the TGI turned out to be 1.98 µM in [6], 3.19 µM in test [10] and 3.63 µM in [8].
In the case of `CC(=O)NC(CCCNC(=O)OCc1ccccc1)C(=O)NCc1ccccc1` (configuration not stated), the TGI in [1], in [2], in [3], in test [9], in [5] and in [6] was more than 100 µM each time. For the same compound, the TGI in [7], in test [10] and in [8] was more than 100 µM in each case.
For `CN1S(=O)(=O)N(C)P12(N=P(CP(=NP13(N(C)S(=O)(=O)N1C)N(C)S(=O)(=O)N3C)(c1ccccc1)c1ccccc1)(c1ccccc1)c1ccccc1)N(C)S(=O)(=O)N2C`, the TGI in test [1], in test [2], in test [3], in test [9], in test [5] and in [6] was more than 100 µM throughout. Also, the TGI in [7], in test [10] and in test [8] was more than 100 µM each time.
`COc1cc2c(Oc3ccc(-c4cnc(Nc5ccc(F)cc5)n(C)c4=O)cc3F)ccnc2cc1OCCCN1CCOCC1`: the GI50 in [2] is 1.48 µM; in [3] it was 1190 nM; in [9], 0.646 µM; in [4] it was 783 nM; in test [5], 1.51 µM; in test [7], 1840 nM. The GI50 is 0.759 µM in test [10] and 1530 nM in test [8]. Besides, the TGI in test [2] worked out at 2.94 µM; in test [3], 2.51 µM; in [9], 2.33 µM; in test [4] it was 2.47 µM; in test [5], 3.22 µM; in [7], 4.71 µM. Moreover, the results for the TGI in [10] and in test [8] were 2.04 µM and 3.19 µM, respectively.
In the case of `O=C1c2ccccc2C2(O)N(c3ccccc3)C(=S)N(c3ccccc3)C12O` (configuration not stated), the TGI in test [1], in test [2], in test [3], in test [9], in test [5] and in test [6] was more than 100 µM each time. Besides, the TGI in test [7], in test [10] and in [8] was more than 100 µM in each case.
Take `O=c1c2cc(Br)ccc2nc(CNc2ccccc2)n1-c1ccccc1`: the TGI in test [1] worked out at 31.2 µM; in test [2] it was 33.7 µM; in test [3] it was 33.9 µM; in test [9], 36.8 µM; in [5], 45.4 µM; in test [6] it was 19.9 µM. In addition, the TGI was more than 54.9 µM in [7], 44.4 µM in test [10] and 62.3 µM in test [8].
`CCOC(=O)C1(C)CCC(C(=O)OC)C1=O` (configuration not stated): the TGI in test [1] is more than 100 µM; in test [2], more than 100 µM; in [3] it was more than 100 µM; in test [9], more than 100 µM; in test [5], 28.6 µM; in [6], 31.7 µM. Moreover, the TGI in test [7], in [10] and in test [8] was more than 100 µM in each case.
As to `CC(C)(C)C1CCC(O)(c2ccccc2)CC1` (configuration not stated), the TGI in test [1] is > 100 µM and 31.7 µM; in test [2] it was > 100 µM and 60 µM; in test [3] it was > 100 µM and 47.9 µM; in test [9] it was > 100 µM and 81.5 µM; in [5], > 100 µM and 55.8 µM; in [6], > 100 µM and 55.1 µM. The TGI in test [7] is > 100 µM and 66.6 µM; in [10], > 100 µM and 41.8 µM; in [8], > 100 µM and 28.4 µM.
